Laboratory results reported in patent US20220409601A1, “COMBINATION CANNABINOID-NAD+ PRECURSOR FORMULATION FOR TREATMENT OF INFLAMMATION AND METHODS RELATED THERETO” (priority 2019, published 2022).
Read-outs that look alike come from different tables or passages of the source.

Columns and labels:
GM-CSF = conditions: IL1β 10 ng/ml, 24 hours, no serum
Source text: (§1) A clonal derivative of ATCC-certified normal chondrocytes was used for a study to determine cytokine expression. The parent line was originally derived from costal cartilage of adolescent […]. The cell line used is C-28/I2 accession number CVCL 0187. The cells were immortalized via retroviral vector-mediated SV40 Large T antigen expression. Cells were confirmed negative for mycoplasma contamination and genotyped by STR analysis to verify cell identity. This cell line is widely used as a model for studying normal and pathological cartilage repair mechanisms and inflammation.
(§2) The cells were cultured at 37° C. with 5% CO2, DMEM/F12 media supplemented with 10% heat-inactivated fetal bovine serum. Antimicrobials were not added to the media. Cells were maintained between 40 and 80% confluency to avoid terminal differentiation. Cells used for the experiments had been passaged no more than ten times prior to each experiment.

chondrocytes (C-28/I2) = experiment: toxicity screen, maximum tolerable concentration in chondrocytes
Source text: as §1, §2
A series of pilot studies were performed to design the final full-scale experiment. First, a toxicity screen for each test compound was performed to establishment maximum tolerable concentrations in this model system. Second, assays were run to establish the optimal means of inducing a pro-inflammatory state in the cell culture system. Third, conditions were tested to set the most favorable dilution scheme in order to maintain samples within the linear range of detection for each analyte. To establish the test concentrations for each test compound, chondrocytes were treated with a serial dilution of each compound, for 24 and 48 hours under serum free conditions. Oleocanthal or CBD were tested at two-fold dilutions down from 50 micromolar (μM).

[1] = High level (CBD 6.00 μM, niacin 900 μM), FIG. 1, 2C
[2] = Moderate level (CBD 2.00 μM, niacin 300 μM), FIG. 1, 2B
[3] = 24 hours post-treatment, serum free, chondrocytes, microscopy (vacuolation, blebbing, reduced cell count), unit not given

Row | Compound | effect on GM-CSF expression (GM-CSF; [1]) | effect on GM-CSF expression (GM-CSF; [2]) | maximum tolerable concentration (chondrocytes (C-28/I2); [3]) | maximum tolerable concentration (chondrocytes (C-28/I2); human, 24 h) [mM]
1 | C=C(C)[C@@H]1CCC(C)=C[C@H]1c1c(O)cc(CCCCC)cc1O [CBD, cannabidiol] | This effect was not seen | This effect was not seen | 604 | –
2 | C/C=C(/C=O)[C@@H](CC=O)CC(=O)OCCc1ccc(O)cc1 [oleocanthal] | – | – | 604 | –
3 | O=C(O)c1cccnc1 [niacin, nicotinic acid] | This effect was not seen | This effect was not seen | – | 1
